Reference: patent publication US20140271634A1, “COMBINATIONS OF A MEK INHIBITOR COMPOUND WITH AN HER3/EGFR INHIBITOR COMPOUND AND METHODS OF USE” (The Regents of the University of California, priority 2013, published 2014)
Like-named read-outs stand apart in the source and are kept apart here.

What was measured:
HCT115 (KRAS^G13D) = test: Proliferation, HCT115 cells; type: cell-based
[1] = test system: tumor cells bearing activating Ras mutations; test: Growth of tumor cells bearing activating Ras mutations; type: cell-based; settings: FIG. 6
From the text: (§1) In one embodiment, the MEK inhibitor of the combination therapy is either GDC-0973 or GDC-0623. […] FIG. 5. […] FIG. 6.

A375 (BRAF^V600E) = test: Proliferation, A375 cells; type: cell-based
[2] = test system: KRAS-Mutant DLD-1 Colorectal Adenocarcinoma Tumor Xenografts; test: DLD-1 colorectal xenograft combination study (Example 7); type: in vivo, mice
Experimental: (§2) A combination study of MEHD7945A and cobimetinib was conducted in the KRAS-mutant colorectal xenograft models LS180 and DLD-1. Both of these models were selected because of their KRAS-mutant status and their EGFR and HER3 expression. Cobimetinib was administered as an aqueous solution orally at […] once daily for 21 days. MEHD7945A was administered IV once a week until Day 21 was reached. Tumor sizes and body weights were recorded twice weekly over the course of the study. Mice were promptly euthanized when tumor volume exceeded 2000 mm3 or if body weight loss was 20% of their starting weight.
(§3) To appropriately analyze the repeated measurement of tumor volumes from the same animals over time, a mixed-modeling approach was used (Pinheiro et al. 2009). This approach addressed both repeated measurements and modest drop-out rates due to non-treatment-related termination of animals before study end. This analysis was used to determine tumor growth inhibition as a percentage of vehicle (% TGI) or time to tumor progression (TTP).
(§4) After randomization, DLD-1 tumor bearing mice were given PO gavage doses of 0 (vehicle), 3, or 10 mg/kg cobimetinib (expressed as free-base equivalents) QD for 21 days. Mice received 25 mg/kg of MEHD7945A via IV bolus injection QW for a total of three injections. In groups that received both agents, cobimetinib was administered first and immediately followed by MEHD7945A.

[3] = test system: BxPC3 Ductal Pancreatic Xenograft Tumors; test: Pancreatic BxPC3 xenograft combination study (Example 8); type: in vivo, mice
From the text: as §3
as §4, with “randomization,” for “randomization, DLD-1 tumor bearing”, “(vehicle), 1,” for “(vehicle), 3,”, “or 5” for “or 10”, “Mice were given” for “Mice received”
Time to tumor progression (TTP) to twice (2×) initial tumor volume was monitored for each group following 21 days of dosing (see FIG. 13C). […] In FIG. 13 CI=confidence interval; CR=complete response (100% decrease in tumor volume); HB#8=histidine buffer; MCT=0.5% (w/v) methylcellulose, 0.2% (w/v) polysorbate 80; NA=not achieved; PR=partial response (50-99% decrease in tumor volume); TTP=time to tumor progression to twice (2×) or five times (5×) the initial tumor volume represents the group average in days.

[4] = test system: tumor cells bearing activating B-RAF mutations; test: Growth of tumor cells bearing activating B-RAF mutations; type: cell-based; settings: FIG. 5
From the text: as §1

LS180 cells = test: TGFα-stimulated LS180 cells, immunoblot of pAKT and pERK1/2; type: cell-based; settings: 10 μg/mL MEHD7945A, 0.05 μM cobimetinib or combination 1 hour before 5 nM TGFα 12 minutes
From the text: (§5) Inhibition of the RAS/RAF/MEK and the PI3K/AKT pathways were explored in vitro using MEHD7945A and cobimetinib or the combination of both agents in KRAS-mutant colorectal cell lines. Two KRAS mutant colorectal cell lines were selected to assess the potential upregulation of phosphorylated AKT (pAKT) by cobimetinib due to the inhibition of negative feedback loops. Upregulation of pAKT upon MEK inhibition has been described in several cell systems (Mirzoeva et al. 2009; Diep et al 2011; Turke et al. 2012). Moreover, we investigated if the addition of MEHD7945A to cobimetinib treatment could enhance pAKT and pERK1/2 inhibition. LS180 cells were pretreated with 10 μg/mL MEHD7945A, 0.05 μM cobimetinib, or the combination thereof for one hour before stimulation with 5 nM TGFα for twelve minutes. DLD-1 cells were pretreated with 10 μg/mL MEHD7945A, 0.025 μM cobimetinib, or the combination thereof for 1 hour before stimulation with 5 nM TGFα for 12 minutes. Cell lysates were immunoblotted to detect phosphorylation of EGFR (pEGFR1068), phosphorylation of AKT (pAKTS473), and phosphorylation of ERK1/2 (pERK1/2 T202/Y204), and total protein levels of EGFR, AKT, or ERK1/2. The results are shown in FIG. 9 (left panel=LS180 cells, right panel=DLD-1 cells) (EGFR=epidermal growth factor receptor; ERK=extracellular signal regulated kinase; p=phosphorylated; TGFα=transforming growth factor α) […]

[5] = test system: LS180 Colorectal Adenocarcinoma Tumor Xenografts; test: LS180 colorectal xenograft combination study (Example 7); type: in vivo, mice
Experimental: as §2, §3
After randomization, LS180 tumor bearing mice were given oral (PO) gavage doses of 0 (vehicle), 3, or 10 mg/kg cobimetinib (expressed as free-base equivalents) once a day (QD) for 21 days. Mice were given 25 mg/kg of MEHD7945A via intravenous (IV) bolus injection once per week (QW) for a total of three injections. In groups that received both agents, cobimetinib was administered first and immediately followed by MEHD7945A.

DLD-1 cells = test: TGFα-stimulated DLD-1 cells, immunoblot of pAKT and pERK1/2; type: cell-based; settings: 10 μg/mL MEHD7945A, 0.025 μM cobimetinib or combination 1 hour before 5 nM TGFα 12 minutes
From the text: as §5

pERK1/2 (Thr202/Tyr204) [6] = test: NRG-stimulated MCF-7 cells, immunoblot of pERK1/2; type: cell-based; settings: 0.5 nM NRG for 10 min
Experimental: (§6) The assays were performed as follows. […] FIG. 2A.

EGFR [7] = target: T1, EGFR (Homo sapiens, UniProt P00533); settings: cited from earlier work
ERK1/2 and AKT pathways = settings: A431 and BxPC3 cells
EGFR [8] = target: T1, EGFR; test: Betacellulin- and amphiregulin-induced EGFR phosphorylation; type: cell-based
pERK1/2 (Thr202/Tyr204) [9] = settings: EGFR-NR6 cells, 1 hr pretreatment, 5 nM TGF-a for 10 min
Experimental: The assays were performed as follows. MCF-7 cells treated with indicated concentrations of MEHD7945A or anti-HER3 were stimulated with 0.5 nM NRG for 10 min. Cell lysates were immunoblotted to detect pHER3 (Tyr1289), pAKT (Ser473), pERK1/2 (Thr202/Tyr204), and total HER3. FIG. 2A. […] Cell lysates were subjected to immunoblotting to detect, pERK1/2 (Thr202/Tyr204), total EGFR, and phosphorylated EGFR. Since EGFR-NR6 cells only express EGFR all potential phosphorylation sites of EGFR were detected using a pTyr antibody.

pAKT (Ser473) = test: NRG-stimulated MCF-7 cells, immunoblot of pAKT; type: cell-based; settings: 0.5 nM NRG for 10 min
Experimental: as §6

HER3-ECD = HER3-ECD (Homo sapiens, UniProt P21860); settings: soluble competitor 0.02-20 μg/ml
phosphorylated EGFR = target: T2, phosphorylated EGFR (Homo sapiens, UniProt P00533); test: TGF-a-stimulated EGFR-NR6 cells, immunoblot of phosphorylated EGFR; type: cell-based; settings: 1 hr pretreatment, 5 nM TGF-a for 10 min
T2 construct: expressed in transfected cells; host or cells: EGFR-NR6
Experimental: The assays were performed as follows. […] Cell lysates were subjected to immunoblotting to detect, pERK1/2 (Thr202/Tyr204), total EGFR, and phosphorylated EGFR. Since EGFR-NR6 cells only express EGFR all potential phosphorylation sites of EGFR were detected using a pTyr antibody.

pHER3 (Tyr1289) = target: T3, pHER3 (Tyr1289) (Homo sapiens, UniProt P21860); test: NRG-stimulated MCF-7 cells, immunoblot of pHER3; type: cell-based; settings: 0.5 nM NRG for 10 min
T3 construct: endogenous in cells; host or cells: MCF-7
Experimental: as §6

FaDu cells = test: FaDu xenograft, head and neck squamous cell carcinoma model; type: in vivo; settings: FaDu tumors in CB17 SCID mice, 25 mg/kg intraperitoneally weekly, 2× loading dose, four treatments
Experimental: MEHD7945A, a commercially available anti-EGFR antibody, and an anti-HER3 antibody were tested in mice with established tumors derived from Fadu cells (ATCC HTB-43, Manassas, Va.) 5×10^6 FaDu cells were inoculated subcutaneously in CB17 SCID mice. Animals with similarly sized tumors were randomized into treatment cohorts (n=9/group) as follows: Vehicle (MEHD7945A formulation buffer), anti-EGFR antibody (25 mg/kg), anti-HER3 antibody (50 mg/kg), and MEHD7945A (25 mg/kg). Treatments were administered intraperitoneally, beginning with a 2× loading dose (50 or 100 mg/kg respectively) on the day of randomization and continuing weekly for a total of four treatments.

[10] = cobimetinib 3 mg/kg PO QD 21 days
[11] = cobimetinib 10 mg/kg PO QD 21 days
[12] = MEHD7945A 25 mg/kg IV QW, three injections

With `O=C(NOCCO)c1ccc2cncn2c1Nc1ccc(I)cc1F` [GDC-0623] the EC50 (HCT115 (KRAS^G13D)) was 42 nM, the “inhibiting the growth of tumor cells bearing activating Ras mutations” value [1] was “more activity” and the EC50 (A375 (BRAF^V600E)) was 7 nM.

With `O=C(c1ccc(F)c(F)c1Nc1ccc(I)cc1F)N1CC(O)([C@@H]2CCCCN2)C1` [GDC-0973, cobimetinib] the TGI [2, 10] was 39%, the TGI [2, 11] was 62% and the “TTP 2× (time to tumor progression to twice initial tumor volume)” value ([3]; cobimetinib 1 mg/kg) was 22 days. For the same molecule, the TGI ([3]; cobimetinib 1 mg/kg PO QD 21 days) was 88%, the “TTP 2× (time to tumor progression to twice initial tumor volume)” value ([3]; cobimetinib 5 mg/kg) was 33 days and the TGI ([3]; cobimetinib 5 mg/kg PO QD 21 days) was 109%. The EC50 (HCT115 (KRAS^G13D)) was 520 nM, the “inhibiting the growth of tumor cells bearing activating B-RAF mutations” value [4] was “more activity” and the “phosphorylation of AKT (pAKTS473)” value (LS180 cells) was “increased phosphorylation of AKT”. For the same molecule, the “phosphorylation of ERK1/2 (pERK1/2 T202/Y204)” value (LS180 cells) was “partial inhibition”, the EC50 (A375 (BRAF^V600E)) was 5 nM and the TGI [5, 10] was 28%. The TGI [5, 11] was 63%, the “phosphorylation of AKT (pAKTS473)” value (DLD-1 cells) was “increased phosphorylation of AKT” and the “phosphorylation of ERK1/2 (pERK1/2 T202/Y204)” value (DLD-1 cells) was “partial inhibition”.

B1: MEHD7945A: dual-action antibody which comprises two identical antigen binding domains, each of which specifically binds to both HER3 and EGFR (antibody, V domains shown)
VH: EVQLVESGGGLVQPGGSLRLSCAASGFTLSGDWIHWVRQAPGKGLEWVGEISAAGGYTDYADSVKGRFTISADTSKNTAYLQMNSLRAEDTAVYYCARESRVSFEAAMDYWGQGTLVTVSS
VL: DIQMTQSPSSLSASVGDRVTITCRASQNIATDVAWYQQKPGKAPKLLIYSASFLYSGVPSRFSGSGSGTDFTLTISSLQPEDFATYYCQQSEPEPYTFGQGTKVEIKR
For B1, the TGI [2, 12] is given as 62%, the “IC50, phosphorylation of ERK1/2” value (pERK1/2 (Thr202/Tyr204) [6]) is given as 1.13 µg/mL and the Kd (EGFR [7]) is given as roughly 1.9 nM. The “inhibition of ERK1/2 and AKT pathways” value (ERK1/2 and AKT pathways) was “as potently as the combination of anti-HER3 and cetuximab”, the “betacellulin- and amphiregulin-induced EGFR phosphorylation” value (EGFR [8]) was “inhibited” and the “IC50, phosphorylation of ERK1/2” value (pERK1/2 (Thr202/Tyr204) [9]) was 0.16 µg/mL. For the same molecule, the “TTP 2× (time to tumor progression to twice initial tumor volume)” value ([3]; MEHD7945A 25 mg/kg) was 39.5 days, the TGI [3, 12] was 107% and the “IC50, phosphorylation of AKT” value (pAKT (Ser473)) was 0.19 µg/mL. The “binding to immobilized HER3-ECD with increasing amounts of EGFR-ECD” value (HER3-ECD) was “reduced in a dose-dependent manner”, the “IC50, phosphorylation of EGFR” value (phosphorylated EGFR) was 0.03 µg/mL and the “IC50, phosphorylation of HER3” value (pHER3 (Tyr1289)) was 0.05 µg/mL. The “inhibition of tumor growth” value (FaDu cells) was “more effective in inhibiting tumor growth than either an anti-EGFR specific or an anti-HER3 specific antibody” and the TGI [5, 12] was 44%.
